Drawing on PubChem BioAssay (NCI), this text covers GI50 and TGI for 16 molecules.

Where “and” joins values, the source holds several entries; their conditions need not be identical. Identical values can stand only once.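 Grown in 96-well plates, cells were treated for 48 hours with each compound at five concentrations. Insufficient inhibition: endpoint recorded as highest concentration tested. GI50: concentration for 50% inhibition of growth. TGI marks complete inhibition of growth.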 Bounds are passed on as bounds.

As usually defined, the GI50 is the concentration at which growth is held to half of that of the control. What is called TGI is the concentration at which net growth stops. A low value points to greater sensitivity of the cells.

The first assay concerns CAKI-1 renal. Kind of assay: DTP human tumour cell line panel, 48 h.
On to `O=C(c1cccs1)c1c(C(F)(F)F)n([O-])c2cc(Cl)c(Cl)cc2[n+]1=O`, for which the GI50 was 1.53 µM and the TGI was 2.92 µM.
For `CSc1nc2nc(-c3ccccc3)c(C)c-2c2n1C(C)C(=O)N2` (stereo unspecified), the GI50 is 53.6 µM and the concentration for total growth inhibition (TGI) was more than 100 µM.
For `C=CCN(CC=C)C(=O)c1cc(C)nc2c1c(=O)n(-c1ccccc1)c(=O)n2CCCN1CCN(c2ccccc2OC)CC1`, in that order: more than 50 µM and more than 50 µM.
On to `CCN(CC)c1ccc2nc3ccc(=[N+](CC)CC)cc-3oc2c1`, for which the GI50 is 2.71 µM and the TGI was more than 31.8 µM.
For the molecule `CN1CCN(c2c(F)cc(NC3=C(Cl)C(=O)c4ncccc4C3=O)cc2F)CC1`, the GI50 was 1.45 µM and the TGI turned out to be 2.77 µM.
In the case of `COc1cc2nnc3c4cccnc4[nH]c3c2cc1OC`, the GI50 was 1.17 µM and 0.184 µM.
In turn, `Cc1ccc(S(=O)(=O)NCCCCC(N)C(=O)O)cc1` (stereo unspecified) registered a TGI of more than 100 µM.
`CCOC(=O)/C(=C\c1cccc(C)c1)C(C)=O` had a TGI of 98.8 µM.
For the molecule `Cc1cccc(Cn2cc(CO)c3cnccc32)c1`, the GI50 was more than 100 µM and the TGI was more than 100 µM.
On to `COC12C(COC(=O)NCCO)C3=C(C(=O)C(C)=C(N)C3=O)N1CC1NC12` (stereo unspecified), for which the GI50 was 4.99 µM; the TGI is 28.2 µM and 21.7 µM.
In the case of `Nc1nccc(-c2c(-c3ccc(F)cc3)nn3cc(C(F)(F)F)ccc23)n1`, the GI50 was more than 25 µM and the TGI was more than 25 µM.
For `C#Cc1ccc(-n2c(/C=C/c3ccc(O)cc3)nc3ncccc3c2=O)cc1`, the GI50 is 4.15 µM and the TGI is more than 100 µM.
On the same counts, the results for `O=C(O)CN(CCN(CC(=O)O)CC(=O)O)CC(=O)O.[Mn+2]` are more than 100 µM and more than 100 µM.
Regarding `N#CC(C#N)=C/C=C(\Sc1ccc(Cl)cc1)c1ccc(F)cc1`, the GI50 is 0.465 µM and the TGI was 2.77 µM.
For the molecule `CCSCC1CC(O)(c2ccccc2)C(c2ccccc2)C(c2ccc(F)cc2)O1` (stereo unspecified), the GI50 is 1.58 µM and the TGI stood at 3.48 µM.
Regarding `CCO/C=C1\SC(=S)N(c2ccc(OCC)cc2)C1=O`, the concentration for total growth inhibition (TGI) was more than 100 µM.

For another assay, the system named is COLO 205 colon. Kind of assay: DTP human tumour cell line panel, 48 h.
In the case of `O=C(c1cccs1)c1c(C(F)(F)F)n([O-])c2cc(Cl)c(Cl)cc2[n+]1=O`, the GI50 was 2 µM and the TGI was determined as 4.13 µM.
For the molecule `CSc1nc2nc(-c3ccccc3)c(C)c-2c2n1C(C)C(=O)N2` (stereo unspecified), the GI50 is 41.4 µM and the TGI is more than 100 µM.
`C=CCN(CC=C)C(=O)c1cc(C)nc2c1c(=O)n(-c1ccccc1)c(=O)n2CCCN1CCN(c2ccccc2OC)CC1`: the GI50 is more than 50 µM and the TGI is more than 50 µM.
On to `CCN(CC)c1ccc2nc3ccc(=[N+](CC)CC)cc-3oc2c1`, for which the GI50 is 0.0222 µM and the TGI came out at 0.86 µM.
Take `CN1CCN(c2c(F)cc(NC3=C(Cl)C(=O)c4ncccc4C3=O)cc2F)CC1`: the GI50 was 2.14 µM and the TGI was 4.82 µM.
Turning to `COc1cc2nnc3c4cccnc4[nH]c3c2cc1OC`, the GI50 is 6.92 µM and 2.96 µM; the TGI was 16 µM and 11.6 µM.
`Cc1ccc(S(=O)(=O)NCCCCC(N)C(=O)O)cc1` (stereo unspecified): the TGI was more than 100 µM.
The same measure, in the same setting: the figure for `CCOC(=O)/C(=C\c1cccc(C)c1)C(C)=O` is 41 µM.
Regarding `Cc1cccc(Cn2cc(CO)c3cnccc32)c1`, the GI50 is more than 100 µM and the total growth inhibition concentration (TGI) was more than 100 µM.
The molecule `COC12C(COC(=O)NCCO)C3=C(C(=O)C(C)=C(N)C3=O)N1CC1NC12` (stereo unspecified) displayed a TGI of 85.8 µM.
For the molecule `Nc1nccc(-c2c(-c3ccc(F)cc3)nn3cc(C(F)(F)F)ccc23)n1`, the GI50 was more than 25 µM and the TGI was more than 25 µM.
Turning to `C#Cc1ccc(-n2c(/C=C/c3ccc(O)cc3)nc3ncccc3c2=O)cc1`, the GI50 is more than 100 µM and the TGI was more than 100 µM.
Regarding `O=C(O)CN(CCN(CC(=O)O)CC(=O)O)CC(=O)O.[Mn+2]`, the GI50 was more than 100 µM and the TGI was more than 100 µM.
For the molecule `N#CC(C#N)=C/C=C(\Sc1ccc(Cl)cc1)c1ccc(F)cc1`, the GI50 was 4.11 µM and the TGI is more than 38.5 µM.
`CCSCC1CC(O)(c2ccccc2)C(c2ccccc2)C(c2ccc(F)cc2)O1` (stereo unspecified): the GI50 is 1.81 µM and the TGI was 3.84 µM.
Turning to `CCO/C=C1\SC(=S)N(c2ccc(OCC)cc2)C1=O`, the TGI is more than 100 µM.

The next assay has as its system HT29 colon. Kind of assay: DTP human tumour cell line panel, 48 h.
As for `O=C(c1cccs1)c1c(C(F)(F)F)n([O-])c2cc(Cl)c(Cl)cc2[n+]1=O`, the GI50 is 0.405 µM and the TGI was more than 100 µM.
Consider `CSc1nc2nc(-c3ccccc3)c(C)c-2c2n1C(C)C(=O)N2` (stereo unspecified), for which the GI50 was 33.7 µM and the TGI is more than 100 µM.
With `C=CCN(CC=C)C(=O)c1cc(C)nc2c1c(=O)n(-c1ccccc1)c(=O)n2CCCN1CCN(c2ccccc2OC)CC1`, the GI50 was more than 50 µM and the TGI is more than 50 µM.
Take `CCN(CC)c1ccc2nc3ccc(=[N+](CC)CC)cc-3oc2c1`: the GI50 is 0.182 µM and the TGI was determined as 2.67 µM.
As for `CN1CCN(c2c(F)cc(NC3=C(Cl)C(=O)c4ncccc4C3=O)cc2F)CC1`, the GI50 was 4.67 µM and the concentration for total growth inhibition (TGI) turned out to be 22.5 µM.
Turning to `COc1cc2nnc3c4cccnc4[nH]c3c2cc1OC`, the GI50 is 1.81 µM and 1.34 µM.
As for `Cc1ccc(S(=O)(=O)NCCCCC(N)C(=O)O)cc1` (stereo unspecified), the TGI was more than 100 µM.
The molecule `CCOC(=O)/C(=C\c1cccc(C)c1)C(C)=O` came in with a TGI of more than 100 µM.
Regarding `Cc1cccc(Cn2cc(CO)c3cnccc32)c1`, the GI50 was 67.2 µM and the TGI is more than 100 µM.
